Reference: US9833497B2, “Human originated EGF domain proteins and use of the same” (CHENGDU SOURCEBIO LIMITED-LIABILITY COMPANY, priority 2013, dated 2017)

Legend:
Assay type in all cases: cell-based
[1] = test system: E. coli DH5α; assay: Antibacterial activity: MIC and growth curve against E. coli DH5α in 96-well plate; settings: minimal inhibitory concentration against E. coli DH5α; 96-well plate, 5×10^5 CFU/mL, 37° C., judged after 8 h
Summary of the method: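 Log-phase DH5α (OD600 about 0.5, 37° C, 185 rpm in LB) was pelleted, resuspended in fresh LB and seeded at 5×10^5 CFU/mL with recombinant protein at 50, 25 and 12.5 μg/mL (two-fold series), in triplicate. Plates were shaken at 175 rpm, 37° C, and OD600 was read every 30 min. MIC was the lowest concentration with no growth.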

[2] = test system: E. coli BL21; assay: MIC against Gram-negative bacteria: E. coli BL21
Summary of the method: (§1)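 Broth microdilution, LB medium, final inoculum 5×10^5 CFU/mL from McFarland 0.5 cultures. Recombinant human EGF domain proteins tested in two-fold steps, n=3. MIC: lowest concentration, no growth.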

[3] = test system: Pseudomonas aeruginosa; assay: MIC against Gram-negative bacteria: Pseudomonas aeruginosa; settings: for MIC: P. aeruginosa
Summary of the method: as §1

[4] = test system: Klebsiella pneumonia; assay: MIC against Gram-negative bacteria: Klebsiella pneumonia; settings: for MIC: K. pneumonia
Summary of the method: as §1

[5] = test system: Enterobacter cloacae; assay: MIC against Gram-negative bacteria: Enterobacter cloacae; settings: for MIC: E. cloacae
Summary of the method: as §1

[6] = test system: Aeromonas hydrophila; assay: MIC against Gram-negative bacteria: Aeromonas hydrophila; settings: for MIC: A. hydrophila
Summary of the method: as §1

[7] = test system: Citrobacter diversus; assay: MIC against Gram-negative bacteria: Citrobacter diversus; settings: for MIC: C. diversus
Summary of the method: as §1

[8] = test system: Moraxella catarrhalis; assay: MIC against Gram-negative bacteria: Moraxella catarrhalis; settings: for MIC: M. catarrhalis
Summary of the method: as §1

[9] = test system: Proteus mirabilis; assay: MIC against Gram-negative bacteria: Proteus mirabilis; settings: for MIC: P. mirabilis
Summary of the method: as §1

[10] = test system: Proteus vulgaris; assay: MIC against Gram-negative bacteria: Proteus vulgaris; settings: for MIC: P. vulgaris
Summary of the method: as §1

[11] = test system: Serratia marcescens; assay: MIC against Gram-negative bacteria: Serratia marcescens; settings: for MIC: S. marcescens
Summary of the method: as §1

[12] = E. coli BL21, 96-well plate, 5×10^5 CFU/mL, 37° C., 10 h
[13] = Pseudomonas aeruginosa, 96-well plate, 5×10^5 CFU/mL, 37° C., 10 h
[14] = Klebsiella pneumonia, 96-well plate, 5×10^5 CFU/mL, 37° C., 10 h
[15] = Enterobacter cloacae, 96-well plate, 5×10^5 CFU/mL, 37° C., 10 h
[16] = Aeromonas hydrophila, 96-well plate, 5×10^5 CFU/mL, 37° C., 10 h
[17] = Citrobacter diversus, 96-well plate, 5×10^5 CFU/mL, 37° C., 10 h
[18] = Moraxella catarrhalis, 96-well plate, 5×10^5 CFU/mL, 37° C., 10 h
[19] = Proteus mirabilis, 96-well plate, 5×10^5 CFU/mL, 37° C., 10 h
[20] = Proteus vulgaris, 96-well plate, 5×10^5 CFU/mL, 37° C., 10 h
[21] = Serratia marcescens, 96-well plate, 5×10^5 CFU/mL, 37° C., 10 h
[22] = 10 h cultivation at 37° C., 5×10^5 CFU/mL, two-fold serial dilution
[23] = E. coli BL21, 10 h cultivation at 37° C., 5×10^5 CFU/mL
[24] = 10 h cultivation at 37° C., 5×10^5 CFU/mL
[25] = 96-well plate, 5×10^5 CFU/mL, 37° C., 10 h

“PRT26 (CDSGPCKNSGFCSERWGSFSCDCPVGFGGKDCQ; listed as Homo sapiens)” was tested, and the MIC [1] was 25 µg/mL, the “MIC (μg/mL) E. coli BL21” value [2, 12] was 12.5 µg/mL and the “MIC (μg/mL) P. aeruginosa” value [3, 13] was 25 µg/mL. The “MIC (μg/mL) K. pneumonia” value [4, 14] was 12.5 µg/mL, the “MIC (μg/mL) E. cloacae” value [5, 15] was 25 µg/mL and the “MIC (μg/mL) A. hydrophila” value [6, 16] was 12.5 µg/mL. For the same substance, the “MIC (μg/mL) C. diversus” value [7, 17] was 25 µg/mL, the “MIC (μg/mL) M. catarrhalis” value [8, 18] was 12.5 µg/mL and the “MIC (μg/mL) P. mirabilis” value [9, 19] was 25 µg/mL. The “MIC (μg/mL) P. vulgaris” value [10, 20] was 12.5 µg/mL and the “MIC (μg/mL) S. marcescens” value [11, 21] was 25 µg/mL.
Substance “PRT1030 (DVDECSENRCHPAATCYNTPGSFSCRCQPGYYGDGFQCI; listed as Homo sapiens)” has an MIC [1] of 25 µg/mL, an MIC ([2]; E. coli BL21, 10 h cultivation at 37° C.) of 12.5 µg/mL and an MIC ([3]; 10 h cultivation at 37° C.) of 50 µg/mL. It also gave an MIC ([4]; 10 h cultivation at 37° C.) of 12.5 µg/mL, an MIC ([5]; 10 h cultivation at 37° C.) of 50 µg/mL and an MIC ([6]; 10 h cultivation at 37° C.) of 25 µg/mL. For the same substance, the MIC ([7]; 10 h cultivation at 37° C.) was 50 µg/mL, the MIC ([8]; 10 h cultivation at 37° C.) was 12.5 µg/mL and the MIC ([9]; 10 h cultivation at 37° C.) was 50 µg/mL. It also gave an MIC ([10]; 10 h cultivation at 37° C.) of 12.5 µg/mL and an MIC ([11]; 10 h cultivation at 37° C.) of 50 µg/mL.
“PRT1068 (DINECLRFGTCSQLCNNTKGGHLCSCARNFMKTHNTCK; listed as Homo sapiens)” was tested, and the MIC [1] was 12.5 µg/mL, the “MIC E. coli BL21” value [2, 22] was 50 µg/mL and the “MIC P. aeruginosa” value [3, 22] was 25 µg/mL. For the same substance, the “MIC K. pneumonia” value [4, 22] was 12.5 µg/mL, the “MIC E. cloacae” value [5, 22] was 25 µg/mL and the “MIC A. hydrophila” value [6, 22] was 50 µg/mL. For the same substance, the “MIC C. diversus” value [7, 22] was 25 µg/mL, the “MIC M. catarrhalis” value [8, 22] was 12.5 µg/mL and the “MIC P. mirabilis” value [9, 22] was 25 µg/mL. The “MIC P. vulgaris” value [10, 22] was 50 µg/mL and the “MIC S. marcescens” value [11, 22] was 25 µg/mL.
For “PRT369 (DVDECLSSPCVSGVCRNLAGSYTCKCGPGSRLDPSGTFCL; listed as Homo sapiens)”, the MIC [1] was 50 µg/mL, the MIC [2, 23] was 25 µg/mL and the MIC [3, 24] was 12.5 µg/mL. For the same substance, the MIC [4, 24] was 50 µg/mL, the MIC [5, 24] was 25 µg/mL and the MIC [6, 24] was 12.5 µg/mL. For the same substance, the MIC [7, 24] was 25 µg/mL, the MIC [8, 24] was 50 µg/mL and the MIC [9, 24] was 12.5 µg/mL. For the same substance, the MIC [10, 24] was 50 µg/mL and the MIC [11, 24] was 12.5 µg/mL.
With “PRT530 (CSCDPEHADGCEQGSGRCHCKPNFHGDNCEKCAIGYYNFPFCLR; listed as Homo sapiens)” the MIC [1] was 50 µg/mL, the “MIC against E. coli BL21” value [2, 25] was 12.5 µg/mL and the “MIC against P. aeruginosa” value [3, 25] was 25 µg/mL. The “MIC against K. pneumonia” value [4, 25] was 50 µg/mL, the “MIC against E. cloacae” value [5, 25] was 25 µg/mL and the “MIC against A. hydrophila” value [6, 25] was 12.5 µg/mL. For the same substance, the “MIC against C. diversus” value [7, 25] was 25 µg/mL, the “MIC against M. catarrhalis” value [8, 25] was 50 µg/mL and the “MIC against P. mirabilis” value [9, 25] was 25 µg/mL. The “MIC against P. vulgaris” value [10, 25] was 12.5 µg/mL and the “MIC against S. marcescens” value [11, 25] was 25 µg/mL.
“PRT522 (CVCNGHAEVCNINNPEKLFRCECQHHTCGETCDRCCTGYNQRRWRPAAWEQSHECEA; listed as Homo sapiens)” was tested, and the MIC [1] was 25 µg/mL, the “MIC against E. coli BL21” value [2, 25] was 50 µg/mL and the “MIC against P. aeruginosa” value [3, 25] was 25 µg/mL. For the same substance, the “MIC against K. pneumonia” value [4, 25] was 12.5 µg/mL, the “MIC against E. cloacae” value [5, 25] was 25 µg/mL and the “MIC against A. hydrophila” value [6, 25] was 50 µg/mL. The “MIC against C. diversus” value [7, 25] was 25 µg/mL, the “MIC against M. catarrhalis” value [8, 25] was 12.5 µg/mL and the “MIC against P. mirabilis” value [9, 25] was 25 µg/mL. The “MIC against P. vulgaris” value [10, 25] was 50 µg/mL and the “MIC against S. marcescens” value [11, 25] was 25 µg/mL.
In the case of “PRT636 (DINECEHPGLCGPQGECLNTEGSFHCVCQQGFSISADGRTCE; listed as Homo sapiens)”, the MIC [1] is reported as 12.5 µg/mL, the “MIC E. coli BL21” value [2, 25] is reported as 25 µg/mL and the “MIC P. aeruginosa” value [3, 25] is reported as 50 µg/mL. The “MIC K. pneumonia” value [4, 25] was 25 µg/mL, the “MIC E. cloacae” value [5, 25] was 12.5 µg/mL and the “MIC A. hydrophila” value [6, 25] was 25 µg/mL. For the same substance, the “MIC C. diversus” value [7, 25] was 50 µg/mL, the “MIC M. catarrhalis” value [8, 25] was 25 µg/mL and the “MIC P. mirabilis” value [9, 25] was 12.5 µg/mL. The “MIC P. vulgaris” value [10, 25] was 25 µg/mL and the “MIC S. marcescens” value [11, 25] was 50 µg/mL.
For “PRT1247 (WGARCEHACQCQHGTCHPRSGACRCEPGWWGAQCA; listed as Homo sapiens)”, the MIC [1] was 50 µg/mL, the “MIC against E. coli BL21” value [2, 12] was 12.5 µg/mL and the “MIC against P. aeruginosa” value [3, 13] was 12.5 µg/mL. For the same substance, the “MIC against K. pneumonia” value [4, 14] was 25 µg/mL, the “MIC against E. cloacae” value [5, 15] was 12.5 µg/mL and the “MIC against A. hydrophila” value [6, 16] was 12.5 µg/mL. The “MIC against C. diversus” value [7, 17] was 25 µg/mL, the “MIC against M. catarrhalis” value [8, 18] was 12.5 µg/mL and the “MIC against P. mirabilis” value [9, 19] was 25 µg/mL. For the same substance, the “MIC against P. vulgaris” value [10, 20] was 12.5 µg/mL and the “MIC against S. marcescens” value [11, 21] was 25 µg/mL.
For “PRT1414 (EVDCMDPTCSGRGVCVRGECHCSVGWGGTNCE; listed as Homo sapiens)”, the MIC [1] was 50 µg/mL, the “MIC against E. coli BL21” value ([2]; E. coli BL21, 5×10^5 CFU/mL, 10 h cultivation at 37° C.) was 12.5 µg/mL and the “MIC against P. aeruginosa” value ([3]; Pseudomonas aeruginosa, 5×10^5 CFU/mL, 10 h cultivation at 37° C.) was 50 µg/mL. The “MIC against K. pneumonia” value ([4]; Klebsiella pneumonia, 5×10^5 CFU/mL, 10 h cultivation at 37° C.) was 12.5 µg/mL, the “MIC against E. cloacae” value ([5]; Enterobacter cloacae, 5×10^5 CFU/mL, 10 h cultivation at 37° C.) was 50 µg/mL and the “MIC against A. hydrophila” value ([6]; Aeromonas hydrophila, 5×10^5 CFU/mL, 10 h cultivation at 37° C.) was 12.5 µg/mL. The “MIC against C. diversus” value ([7]; Citrobacter diversus, 5×10^5 CFU/mL, 10 h cultivation at 37° C.) was 12.5 µg/mL, the “MIC against M. catarrhalis” value ([8]; Moraxella catarrhalis, 5×10^5 CFU/mL, 10 h cultivation at 37° C.) was 50 µg/mL and the “MIC against P. mirabilis” value ([9]; Proteus mirabilis, 5×10^5 CFU/mL, 10 h cultivation at 37° C.) was 12.5 µg/mL. The “MIC against P. vulgaris” value ([10]; Proteus vulgaris, 5×10^5 CFU/mL, 10 h cultivation at 37° C.) was 12.5 µg/mL and the “MIC against S. marcescens” value ([11]; Serratia marcescens, 5×10^5 CFU/mL, 10 h cultivation at 37° C.) was 25 µg/mL.
In the case of “PRT431 (DIDECRTIPEACRGDMMCVNQNGGYLCIPRTNPVYRGPYSN; listed as Homo sapiens)”, the MIC [1] is reported as 50 µg/mL, the MIC [2, 23] is reported as 12.5 µg/mL and the MIC [3, 24] is reported as 50 µg/mL. It also gave an MIC [4, 24] of 12.5 µg/mL, an MIC [5, 24] of 50 µg/mL and an MIC [6, 24] of 12.5 µg/mL. It also gave an MIC [7, 24] of 50 µg/mL, an MIC [8, 24] of 12.5 µg/mL and an MIC [9, 24] of 50 µg/mL. For the same substance, the MIC [10, 24] was 25 µg/mL and the MIC [11, 24] was 12.5 µg/mL.
